Legend:
[1] = system: tight junction permeability, human duodenum monolayer culture; experiment: Increased trans-epithelial resistance (TEER) in human organoid monolayer cell cultures; type: cell-based; conditions: 1 μM apical, baseline corrected
Procedure: (§1) Basal media (BM) consisted of advanced DMEM/F12 containing 10 mM HEPES (Invitrogen, 15630-080), 1:100 Glutamax (Invitrogen, 35050-061), and 1:100 penicillin/streptomycin (Invitrogen, 15140-122). […] Growth factors used included 50 ng per mL mouse EGF (Peprotech, 315-09), 100 ng per mL mouse noggin (Peprotech, 250-38), 500 ng per mL human R-spondin 1 (R&D, 4645-RS), 100 ng per mL mouse Wnt-3a (R&D, 1324-WN), 20 μM Y-27632 (Tocris, 1254), 10 mM nicotinamide (Sigma, N0636), 500 nM A83-01 (Tocris, 2939), 10 μM SB202190 (Tocris, 1264). Transwells were 0.4 μm pore polyester membrane 24-well Transwell inserts (Corning). Cultures were incubated at 37° C. in 5% CO2.
Human duodenum organoids were cultured in WENRNAS (Wnt, EGF, noggin, R-spondin1, Nicotinamide, A83-01, SB202190) and typically grown for 7-12 days before being used to plate monolayer cultures. […]
Each human duodenum monolayer culture well was washed twice with fresh SBM on the apical side on day 6 or day 7 before dosing. […] Transepithelial electrical resistance (TEER) was used as a quantitative technique to measure of tight junction permeability. TEER values were recorded (MERS00002, Millipore) before dosing and 30 mins and 1 hr after dosing for all wells. […] Baseline corrected TEER for each example compound was compared to the average of the DMSO wells and expressed as a percent TEER of vehicle control.

[2] = system: apical acid secretion, human duodenum monolayer culture; experiment: Sustained inhibition of apical acid secretion in human organoid monolayer cell cultures (duodenum); type: cell-based; conditions: 1 μM apical dosing, inhibition of apical acid secretion vs DMSO
[3] = system: apical acid secretion, human ileum monolayer culture; experiment: Sustained inhibition of apical acid secretion in human organoid monolayer cell cultures (ileum); type: cell-based; conditions: 1 μM apical dosing day 6, apical media pH day 8, inhibition of apical acid secretion vs DMSO
Procedure: as §1
Human ileum organoids were cultured in WENRNAS (Wnt, EGF, noggin, R-spondin1, Nicotinamide, A83-01, SB202190) and typically grown for 7-12 days before being used to plate monolayer cultures. On day 0, organoid cultures embedded in Matrigel were treated with TrypLE Express to break organoids into small pieces and/or single cells. […]
Each human ileum monolayer culture well was washed twice with fresh SBM on the apical side on day 6 before compound dosing. […] On day 8, apical media pH was measured by pH meter, to determine the ability of example compounds to produce sustained inhibition of NHE3 activity in a human monolayer culture system by preventing proton secretion into the apical compartment.

Plasma PK = type: in vivo, Sprague-Dawley rats; conditions: Sprague-Dawley, rat plasma, oral gavage, nominal dose 15 mg/kg, mean of n=3
Procedure: Sprague-Dawley rats (n=3) were dosed with test compound by oral gavage. Blood samples were collected at 0.5, 1, 2 and 4 h by retro-orbital bleeds and processed to plasma using K2EDTA as an anticoagulant. Plasma samples were treated with acetonitrile containing an internal standard and precipitated proteins were removed by centrifugation. Supernatants were analyzed by LC-MS/MS and compound concentrations were determined by interpolation from a standard calibration curve prepared in plasma. Accurate recovery of quality control samples was confirmed to accept each analytical run. Table 5 illustrates data from the pharmacokinetic profiling of an example compound, for which pharmacokinetic parameters were determined.

CN(C)[C@H]1Cc2c(Cl)cc(Cl)cc2[C@@H]1Oc1ccc(S(=O)(=O)NCCOCCOCCNC(=O)NCCCCNC(=O)NCCOCCOCCNS(=O)(=O)c2ccc(O[C@H]3c4cc(Cl)cc(Cl)c4C[C@@H]3N(C)C)cc2)cc1 [Example 1, (S,S)—N,N′-(10,17-dioxo-3,6,21,24-tetraoxa-9,11,16,18-tetraazahexacosane-1,26-diyl)bis(4-((1S,2S)-4,6-dichloro-2-(dimethylamino)-2,3-dihydro-1H-inden-1-yloxy)benzenesulfonamide)]
TEER at 30 minutes (% of Vehicle) ([1]; 30 mins after dosing): B (100-130%) | TEER at 60 minutes (% of Vehicle) ([1]; 1 hr after dosing): B (100-130%) | % inhibition (duodenum) [2]: C (>70%) | % inhibition (ileum) [3]: B (50-70%) | Cmax (Plasma PK; LLOQ 0.2 ng/mL): 1 ng/mL | AUC (Plasma PK; samples 0.5-4 h): < 3 ng·h/mL
